Calls of active or inactive are those of the source.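 How the source made its calls: active means at least one rat sex group has a carcinogenic potency value and tumor site recorded; inconclusive means only rat studies were judged inadequate by the national testing program; inactive means no potency or tumor site, with negative rat experiments.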 Where a SMILES comes first, the peptide text is derived from it.
Test system: rat chronic carcinogenicity bioassay, TD50
Assay: DSSTox (CPDBAS) Carcinogenic Potency Database Summary Rat Bioassay Results
Conditions: for Potency: stronger effect = lower value
From the text: The Carcinogenic Potency Database (CPDB) is a unique and widely used international resource of the results of over 6500 chronic, long-term animal cancer tests on over 1500 chemical substances. The CPDB provides easy access to the bioassay literature, with qualitative and quantitative analyses of both positive and negative experiments that have been published over the past 50 years in the general literature and by the National Cancer Institute/National Toxicology Program. The CPDB standardizes the diverse literature of cancer bioassays that vary widely in protocol, histopathological examination and nomenclature, and in the published author's choices of what information to provide in their papers. Results are reported in the CPDB for tests in rats, mice, hamsters, dogs, and nonhuman primates, and are based on the most positive result among all experiments for each sex-species. The DSSTox CPDBAS (all species) file incorporates data from the CPDB Summary Tables for the full list of over 1500 chemical substances tested in at least one species. Summary bioassay results for Rat (TD50, tumor sites, male, female, both sexes) are provided in the CPDB Summary Tables and the DSSTox CPDBAS file for over 1200 chemical substances.
TD50 is a standardized quantitative measure of carcinogenic potency (analogous to an LD50) and is reported in the CPDB Summary Table for each species. Activity Score for actives is computed by mapping of LOG10 (1/TD50_Rat_mmol) activity values spanning range [MIN, MAX] onto Integer 1-100 Activity Score range, where 100 is highest potency and 1 is lowest: Activity Score = 100 * INTEGER[(log10(1/Activity) - MIN)/(MAX - MIN)]. If activity is reported but no TD50_Rat_mmol value is computed, such as for a mixture, the Activity Score is assigned the activity value "50". […] Target sites are reported for each sex-species group with a positive result in the CPDB on the basis of a positive author's opinion for the particular site, using all results from both the general literature and NCI/NTP bioassays. If a chemical has two or more target sites listed, the results may be from different experiments, and a single site may be a target organ in more than one experiment, as well. Blank entry in TargetSites field indicates no results reported.

[1] = TD50_Rat_Note: no positive results
[2] = TD50_Rat_Note: no positive results, TargetSites_Rat_Female: no positive results
[3] = TD50_Rat_Note: TD50 is harmonic mean of more than one positive test, TargetSites_Rat_Female: liver
[4] = TargetSites_Rat_Female: no positive results
[5] = TD50_Rat_Note: TD50 is harmonic mean of more than one positive test, TargetSites_Rat_Female: stomach

Cc1cnc2ccc3c(nc(N)n3C)c2n1
Potency (TD50_Rat_Note: TD50 is harmonic mean of more than one positive test, TargetSites_Rat_Female: clitoral gland, ear Zymbals gland, liver): 1.66 mg/kg/day

O=S(=O)([O-])[O-].[O]=[V+2]
outcome [1]: inactive; no positive results

CC(=O)Nc1ccc(CC(=O)O)cc1
outcome [2]: inactive; no positive results

CC1CC(=O)O1 (stereo not drawn)
Potency (TargetSites_Rat_Female: stomach): 13.8 mg/kg/day

O=C(Nc1nc(-c2ccc([N+](=O)[O-])o2)cs1)C(F)(F)F
Potency (TargetSites_Rat_Female: mammary gland): 6.79 mg/kg/day

Nc1nnc(-c2ccc([N+](=O)[O-])o2)o1
Potency (TargetSites_Rat_Female: kidney, lung, mammary gland, stomach): 3.67 mg/kg/day

CC1(C)[C@H](C(=O)O[C@H](C#N)c2cccc(Oc3ccccc3)c2)[C@@H]1C=C(Br)Br
outcome [2]: inactive; no positive results

O=NN1C[C@H](O)C[C@H]1C(=O)O
outcome [2]: inactive; no positive results

Nc1cc(Cl)cc(C(=O)O)c1Cl
outcome [2]: inactive; no positive results

Cc1ccc(N=Nc2c(O)c(S(=O)(=O)O)cc3ccc(S(=O)(=O)O)cc23)c(C)c1
Potency (TD50_Rat_Note: TD50 value less than the reported upper confidence limit, TD50 is harmonic mean of more than one positive test, harmonic, TargetSites_Rat_Female: liver): 415 mg/kg/day

Nc1nc(-c2ccc([N+](=O)[O-])o2)cs1
Potency (TargetSites_Rat_Female: stomach, urinary bladder): 5.85 mg/kg/day

CCOc1ccc2c(c1)C(C)=CC(C)(C)N2
outcome [2]: inactive; no positive results

S=C=NCCCCCCc1ccccc1
outcome [1]: inactive; no positive results

CCCCCC
outcome [2]: inactive; no positive results

OCC(O)CO
outcome (TD50_Rat_Note: no positive results, TargetSites_Rat_BothSexes: no positive results): inactive

Cc1ccc2c(c1[N+](=O)[O-])C(=O)c1ccccc1C2=O
Potency [3]: 84.8 mg/kg/day

Nc1ccc([N+](=O)[O-])cc1N
outcome [2]: inactive; no positive results

CN(C)C(=O)COC(=O)Cc1ccc(OC(=O)c2ccc(N=C(N)N)cc2)cc1
outcome [1]: inactive; no positive results

CC(C)(Oc1ccc(C2CC2(Cl)Cl)cc1)C(=O)O (stereo not drawn)
Potency (TD50_Rat_Note: TD50 is harmonic mean of more than one positive test, harmonic mean of TD50 includes a value for upper 99% confidence li, TargetSites_Rat_Female: stomach): 1.97 mg/kg/day

FCC(F)(F)F
Potency [4]: 29900 mg/kg/day

CS(=O)(=O)OCCCNCCCOS(C)(=O)=O
outcome [2]: inactive; no positive results

c1ccc2c(c1)[nH]c1cnccc12
outcome [1]: inactive; no positive results

O=S(=O)(O)c1c(N=Nc2c(O)ccc3ccccc23)ccc2ccccc12
outcome [2]: inactive; no positive results

C[C@H]1CCCC(=O)CCC/C=C/c2cc(O)cc(O)c2C(=O)O1
outcome [2]: inactive; no positive results

O=NN1CCCC1c1cccnc1 (stereo not drawn)
Potency: 0.0957 mg/kg/day

Cc1cc(C)c(S(=O)(=O)O)cc1N=Nc1cc(S(=O)(=O)O)c2ccccc2c1O
Potency (TD50_Rat_Note: TD50 is harmonic mean of more than one positive test, TargetSites_Rat_BothSexes: hematopoietic system): 8110 mg/kg/day

CNCCC(Oc1ccc(C(F)(F)F)cc1)c1ccccc1 (stereo not drawn)
outcome [2]: inactive; no positive results

Cc1cccc(N)c1
outcome [1]: inactive; no positive results

Nc1cc(S(=O)(=O)O)cc2cc(S(=O)(=O)O)c(N=Nc3ccc(-c4ccc(N=Nc5c(S(=O)(=O)O)cc6cc(S(=O)(=O)O)cc(N)c6c5O)cc4)cc3)c(O)c12
Potency [3]: 1.73 mg/kg/day

O=CNNc1nc(-c2ccc([N+](=O)[O-])o2)cs1
Potency (TD50_Rat_Note: TD50 is harmonic mean of more than one positive test, TargetSites_Rat_Female: ear Zymbals gland, hematopoietic system, kidney, large intestine, liver, mammary gland, small intestine): 5.06 mg/kg/day

C=CCN(CC(C)O)N=O (stereo not drawn)
Potency (TargetSites_Rat_Female: esophagus, liver, nasal cavity): 0.877 mg/kg/day

Cl/C=C/CCl
Potency [5]: 94 mg/kg/day | Potency [2]: 100 mg/kg/day

C#C[C@]1(OC(C)=O)CC[C@H]2[C@@H]3CCC4=CC(=O)CC[C@@H]4[C@H]3CC[C@@]21C
Potency (TD50_Rat_Note: TD50_Rat_mmol was not calculated for this mixture, but Activiity Score is assigned value of 50 to indicate active, TargetSites_Rat_BothSexes: liver, mammary gland, pituitary gland, uterus): 1.94 mg/kg/day

O=[N+]([O-])c1ccc(-c2nc(N(CCO)CCO)c3ccccc3n2)s1
Potency: 3.14 mg/kg/day

Clc1ccc(-c2cccc(Cl)c2Cl)c(Cl)c1
Potency (TD50_Rat_Note: TD50 is harmonic mean of more than one positive test, TD50_Rat_mmol was not calculated for this mixture, but Activiity S, TargetSites_Rat_Female: liver): 11.8 mg/kg/day

O=C1CN=C(c2ccccc2)c2cc(Cl)ccc2N1CC1CC1
outcome [2]: inactive; no positive results

COC(=O)[C@H](Cc1ccccc1)NC(=O)[C@@H](N)CC(=O)O (H-Asp-Phe-OMe)
outcome [2]: inactive; no positive results

OC[C@H]1O[C@@H]2O[C@H]3[C@H](O)[C@@H](O)[C@@H](O[C@H]4[C@H](O)[C@@H](O)[C@@H](O[C@H]5[C@H](O)[C@@H](O)[C@@H](O[C@H]6[C@H](O)[C@@H](O)[C@@H](O[C@H]7[C@H](O)[C@@H](O)[C@@H](O[C@H]8[C@H](O)[C@@H](O)[C@@H](O[C@H]1[C@H](O)[C@H]2O)O[C@@H]8CO)O[C@@H]7CO)O[C@@H]6CO)O[C@@H]5CO)O[C@@H]4CO)O[C@@H]3CO
outcome [2]: inactive; no positive results

c1ccc(C2CO2)cc1 (stereo not drawn)
Potency [5]: 55.4 mg/kg/day

C[C@@H]1O[C@@H](OC[C@H]2O[C@@H](Oc3c(-c4ccc(O)c(O)c4)oc4cc(O)cc(O)c4c3=O)[C@H](O)[C@@H](O)[C@@H]2O)[C@H](O)[C@H](O)[C@H]1O
outcome [2]: inactive; no positive results

C=CC(=C)C
Potency (TD50_Rat_Note: TD50 is harmonic mean of more than one positive test, TargetSites_Rat_Female: mammary gland): 313 mg/kg/day

OCC(O)CCl (stereo not drawn)
outcome [2]: inactive; no positive results

CCN(CC)C(=S)S
outcome [2]: inactive; no positive results

C/C=N/O
outcome [1]: inactive; no positive results

CC[C@H](C)C(=O)O[C@H]1C[C@@H](C)C=C2C=C[C@H](C)[C@H](CC[C@@H]3C[C@@H](O)CC(=O)O3)[C@H]21
outcome [2]: inactive; no positive results

Cc1ccc(C)c(C)c1
Potency [4]: 4350 mg/kg/day

O=C1CCCO1
outcome [2]: inactive; no positive results

Cc1ccc2ncccc2c1
outcome [2]: inactive; no positive results

O=C(N[C@H](CO)[C@H](O)c1ccc([N+](=O)[O-])cc1)C(Cl)Cl
outcome [2]: inactive

CCOC(=O)/C=C\C(=O)OCC
outcome [1]: inactive; no positive results

CCN(CC)C(=O)/C(Cl)=C(\C)OP(=O)(OC)OC
outcome (TD50_Rat_Note: only experiment is NCI/NTP bioassay inadequate, TargetSites_Rat_Female: NTP bioassay inadequate): ntp bioassay inadequate

OCl
outcome [2]: inactive; no positive results

COc1ccc(O)cc1
Potency [5]: 658 mg/kg/day

CCCCOCCO
outcome [2]: inactive; no positive results

COC(C)(C)C
Potency (TD50_Rat_Note: TD50 is harmonic mean of more than one positive test, TargetSites_Rat_Female: hematopoietic system): 702 mg/kg/day

COP(=O)(OC)O/C(=C\Cl)c1cc(Cl)c(Cl)cc1Cl
outcome (TD50_Rat_Note: no positive results, TargetSites_Rat_Female: no positive results- CPDB evaluation based on NCI Technical Report): no positive results

COc1c2occc2cc2ccc(=O)oc12
Potency [4]: 32.4 mg/kg/day

CC1=C2C(=CO[C@@H](C)[C@@H]2C)C(=O)C(C(=O)O)=C1O
Potency (TD50_Rat_Note: TD50 value is overestimated as upper 99% confidence limit from study with 100% tumor incidence but no lifetable, TD50 is): 7.48 mg/kg/day

CC(C)CN(N=O)C(=N)N[N+](=O)[O-]
outcome [1]: inactive; no positive results

C=CC(O)c1ccc2c(c1)OCO2 (stereo not drawn)
Potency (TD50_Rat_Note: TD50 is harmonic mean of more than one positive test): 18.4 mg/kg/day

COC(=O)c1ccc(C(=O)OC)cc1
outcome [2]: inactive; no positive results

O=C1c2ccccc2-c2ccc3c4c(ccc1c24)-c1ccccc1C3=O
outcome [2]: inactive; no positive results

Cc1c(-c2cnccn2)ssc1=S
outcome [2]: inactive; no positive results

Nc1ccccc1C(=O)OC/C=C/c1ccccc1
Potency [4]: 12100 mg/kg/day

Cc1cc(N)ccc1N
outcome [2]: inactive; no positive results

CCC[C@@H]1O[C@@H]2C[C@H]3[C@@H]4CCC5=CC(=O)C=C[C@]5(C)[C@H]4[C@@H](O)C[C@]3(C)[C@]2(C(=O)CO)O1
Potency: 0.291 mg/kg/day

CCCCC(CC)COC(=O)CCCCC(=O)OCC(CC)CCCC (stereo not drawn)
outcome [2]: inactive; no positive results

NCCNc1cccc2ccccc12
outcome [2]: inactive; no positive results

Cc1ncc([N+](=O)[O-])n1CCO
Potency (TD50_Rat_Note: TD50 is harmonic mean of more than one positive test, TargetSites_Rat_Female: liver, mammary gland): 542 mg/kg/day

Nc1ccc(NCCO)c([N+](=O)[O-])c1
outcome [2]: inactive; no positive results

C/C=C1/C[C@@H](C)[C@](O)(CO)C(=O)OCC2=CC[N+]3([O-])CC[C@@H](OC1=O)[C@@H]23 (stereo partly drawn)
Potency [3]: 0.716 mg/kg/day

Nc1ccc(N)c(Cl)c1
outcome [2]: inactive; no positive results
